Reference: patent US9133207B2, “Tetrandrine derivatives with substituted 5-carbon, preparation method and use thereof” (Hangzhou Bensheng Pharmaceutical Co., Ltd., priority 2011, dated 2015)
≈ marks a conversion by molar mass, not a printed value.

How the values were obtained:
[1] = test system: Jurkat (acute lymphoblastic leukemia, ALL); assay: Leukemia cell growth inhibition, MTT, 72 h (Example 5); type: cell-based, human; details: Homo sapiens, Jurkat; 72 h, MTT
Excerpt: (§1) Leukemia cell lines: leukemia cell lines: K562/adr (drug-resistant, chronic myeloid leukemia, CML), NB4 (acute promyelocytic leukemia, AML), Kasumi-1 (acute myeloid leukemia M2 type, AML-M2), Jurkat (acute lymphoblastic leukemia, ALL), all of which are donated by Cancer Research Institute of Zhejiang University, China; and H9 (acute lymphoblastic leukemia, ALL), which is purchased from China Center for Type Culture Collection.
(§2) Reagents: The standard sample of tetrandrine (TTD) is purchased from Ci Yuan Biotechnology Co., Ltd., Shaanxi, China; and the 5-substituted tetrandrine derivatives of the present invention.
(§3) Obtaining 6000 well-growing leukemia cells and inoculating them into wells of a 96-well cell culture plate. The culture medium is a 1640 cell culture medium containing 10% fetal bovine serum. After adding the tetrandrine derivatives of different concentrations and mixing uniformly, placing the plate in a carbon dioxide cell incubator (5% CO2) at 37° C. and incubating for 72 hours. Then the viable cell concentration is determined by the MTT method.

[2] = test system: K562/adr (drug-resistant, chronic myeloid leukemia, CML); assay: as above; type: cell-based, human; details: Homo sapiens, K562/Adr; 72 h, MTT
Excerpt: as §1, §2, §3

[3] = test system: Kasumi-1 (acute myeloid leukemia M2 type, AML-M2); assay: as above; type: cell-based, human; details: Homo sapiens, Kasumi 1
Excerpt: as §1, §2, §3

[4] = test system: H9 (acute lymphoblastic leukemia, ALL); assay: as above; type: cell-based, human; details: Homo sapiens; 72 h, MTT
Excerpt: as §1, §2, §3

[5] = test system: RPMI8226 (multiple myeloma); assay: Multiple myeloma cell growth inhibition, MTT, 72 h (Example 6); type: cell-based, human; details: Homo sapiens, RPMI-8226; 72 h, MTT, RPMI8226
Protocol: Multiple myeloma and lymphoma cell lines: RPMI8226 (multiple myeloma), purchased from Fuxiang Bio-tech Co. Ltd., Shanghai, China.
(§4) Reagents: the same as in Example 5.
as §3, with “incubated” for “incubating”

MG63 (osteosarcoma) = assay: Solid tumor cell growth inhibition, MTT, 72 h (Example 7); type: cell-based, human; details: Homo sapiens; 72 h, MTT, MG-63
Protocol: (§5) Human solid tumor cell lines: Hep-2 (laryngeal carcinoma), A549 (human lung cancer), CaES-17 (esophageal cancer cell), PC-3 (prostate cancer), CNE (nasopharyngeal carcinoma cell) and SK-OV-3 (ovarian cancer cell), all of which are purchased from China Center For Type Culture Collection; RKO (human colon adenocarcinoma cell), MGC 803 (human gastric cancer cell), MG63 (osteosarcoma), and U87 MG (malignant glioma cell), all of which are purchased from Fuxiang Bio-tech Co. Ltd., Shanghai, China; PANC-1 (pancreatic cancer), Huh? (human liver cancer cell), Becap37 (human breast cancer cell), and Hela (human cervical cancer cell), all of which are donated by Cancer Research Institute of Zhejiang University, China.
as §4
(§6) Obtaining 4000 well-growing human solid tumor cells and inoculating them into wells of a 96-well cell culture plate. The culture medium is DMEM High Glucose cell culture medium containing 10% fetal bovine serum. The plate is placed in a carbon dioxide cell incubator (5% CO2) at 37° C. and incubated for 24 hours. After been added with tetrandrine derivatives of different concentration and mixing uniformly, the plate is placed in a carbon dioxide cell incubator (5% CO2) at 37° C. and incubated for 72 hours. Then the viable cell concentration is determined by the MTT method and the cell viability (%) after drug treatment is calculated. In this experiment, the cell viability of control group (not treated with any compound) is set as 100%.

PC-3 (prostate cancer) = assay: as above; type: cell-based, human; details: Homo sapiens; 72 h, MTT, PC-3
Protocol: as §5, §4, §6

[6] = test system: CaES-17 (esophageal cancer cell); assay: as above; type: cell-based, human; details: Homo sapiens, CaEs17; 72 h, MTT, CAES-17
Protocol: as §5, §4, §6

[7] = test system: PANC-1 (pancreatic cancer); assay: as above; type: cell-based, human; details: Homo sapiens; 72 h, MTT, PANC-1
Protocol: as §5, §4, §6

A549 (human lung cancer) = assay: as above; type: cell-based; details: Homo sapiens; 72 h, MTT, A549
Protocol: as §5, §4, §6

[8] = test system: Huh7 (human liver cancer cell); assay: as above; type: cell-based; details: Homo sapiens; 72 h, MTT, Huh-7
Protocol: as §5, §4, §6

[9] = test system: MGC 803 (human gastric cancer cell); assay: as above; type: cell-based; details: Homo sapiens
Protocol: as §5, §4, §6

[10] = test system: Becap37 (human breast cancer cell); assay: as above; type: cell-based; details: Homo sapiens; 72 h, MTT, Becap-37
Protocol: as §5, §4, §6

SMILES | IC50 [1] | IC90 [1] | IC50 [2] | IC90 [2] | IC50 [3] | IC90 [3] | IC50 [5] | IC90 [5] | IC50 (MG63 (osteosarcoma)) | IC90 (MG63 (osteosarcoma)) | IC50 [7] | IC90 [7] | IC50 (A549 (human lung cancer)) | IC90 (A549 (human lung cancer)) | IC50 [8] | IC90 [8] | IC50 [9] | IC90 [9] | IC50 [10] | IC90 [10] | further results
COc1ccc2cc1Oc1ccc(cc1)C[C@H]1c3cc(c(OC)cc3CCN1C)Oc1c(OC)c(OC)c(COCCn3ccnc3)c3c1[C@H](C2)N(C)CC3 [BS-TE-418] | 2.98 µg/mL (≈ 3.99 µM) | 13.8 µg/mL (≈ 18.5 µM) | 1.53 µg/mL (≈ 2.05 µM) | 3.91 µg/mL (≈ 5.23 µM) | 1.46 µg/mL (≈ 1.95 µM) | 7.46 µg/mL (≈ 9.99 µM) | 0.15 µg/mL (≈ 0.201 µM) | 2.12 µg/mL (≈ 2.84 µM) | 1.48 µg/mL (≈ 1.98 µM) | 4.45 µg/mL (≈ 5.96 µM) | 4.57 µg/mL (≈ 6.12 µM) | 9.5 µg/mL (≈ 12.7 µM) | 4.5 µg/mL (≈ 6.02 µM) | 11 µg/mL (≈ 14.8 µM) | 3.08 µg/mL (≈ 4.12 µM) | 5.77 µg/mL (≈ 7.73 µM) | 4.4 µg/mL (≈ 5.89 µM) | 6.85 µg/mL (≈ 9.17 µM) | 1.98 µg/mL (≈ 2.65 µM) | 4.4 µg/mL (≈ 5.89 µM) | IC50 [4]: 2.38 µg/mL (≈ 3.19 µM); IC90 [4]: 5 µg/mL (≈ 6.69 µM); IC50 (PC-3 (prostate cancer)): 4.98 µg/mL (≈ 6.67 µM); IC90 (PC-3 (prostate cancer)): 9.43 µg/mL (≈ 12.6 µM); IC50 [6]: 1.71 µg/mL (≈ 2.29 µM); IC90 [6]: 9.9 µg/mL (≈ 13.3 µM)
COc1ccc2cc1Oc1ccc(cc1)C[C@H]1c3cc(c(OC)cc3CCN1C)Oc1c(OC)c(OC)c(CNc3nccs3)c3c1[C@H](C2)N(C)CC3 [BS-TE-320] | 2 µg/mL (≈ 2.72 µM) | 6.19 µg/mL (≈ 8.42 µM) | 0.84 µg/mL (≈ 1.14 µM) | 3.36 µg/mL (≈ 4.57 µM) | 0.78 µg/mL (≈ 1.06 µM) | 3.65 µg/mL (≈ 4.97 µM) | 0.06 µg/mL (≈ 0.0816 µM) | 2 µg/mL (≈ 2.72 µM) | 1.1 µg/mL (≈ 1.5 µM) | 2.18 µg/mL (≈ 2.97 µM) | 3.52 µg/mL (≈ 4.79 µM) | 9.25 µg/mL (≈ 12.6 µM) | 2.98 µg/mL (≈ 4.05 µM) | 7.85 µg/mL (≈ 10.7 µM) | 2 µg/mL (≈ 2.72 µM) | 3.92 µg/mL (≈ 5.33 µM) | 1.72 µg/mL (≈ 2.34 µM) | 2.76 µg/mL (≈ 3.76 µM) | 1.6 µg/mL (≈ 2.18 µM) | 2.17 µg/mL (≈ 2.95 µM) | IC50 [4]: 1.98 µg/mL (≈ 2.69 µM); IC90 [4]: 3.36 µg/mL (≈ 4.57 µM); IC50 [6]: 2.11 µg/mL (≈ 2.87 µM); IC90 [6]: 12.2 µg/mL (≈ 16.6 µM)
COc1ccc2cc1Oc1ccc(cc1)C[C@H]1c3cc(c(OC)cc3CCN1C)Oc1c(OC)c(OC)c(COC(=O)c3ccccc3)c3c1[C@H](C2)N(C)CC3 [BS-TE-224] | 3.39 µg/mL (≈ 4.48 µM) | 7.65 µg/mL (≈ 10.1 µM) | 0.67 µg/mL (≈ 0.885 µM) | 4.65 µg/mL (≈ 6.14 µM) | 3.19 µg/mL (≈ 4.21 µM) | 7.36 µg/mL (≈ 9.72 µM) | 0.27 µg/mL (≈ 0.357 µM) | 1.44 µg/mL (≈ 1.9 µM) | 2.76 µg/mL (≈ 3.65 µM) | 4.51 µg/mL (≈ 5.96 µM) | 5.68 µg/mL (≈ 7.5 µM) | 8.76 µg/mL (≈ 11.6 µM) | > 16 µg/mL | > 16 µg/mL | 2.4 µg/mL (≈ 3.17 µM) | 3.93 µg/mL (≈ 5.19 µM) | 2.45 µg/mL (≈ 3.24 µM) | 3.72 µg/mL (≈ 4.91 µM) | 2.85 µg/mL (≈ 3.77 µM) | 4.18 µg/mL (≈ 5.52 µM) | IC50 [4]: 2.99 µg/mL (≈ 3.95 µM); IC90 [4]: 4.75 µg/mL (≈ 6.28 µM); IC50 (PC-3 (prostate cancer)): 6.38 µg/mL (≈ 8.43 µM); IC90 (PC-3 (prostate cancer)): 9 µg/mL (≈ 11.9 µM); IC50 [6]: 2.4 µg/mL (≈ 3.17 µM); IC90 [6]: 7.23 µg/mL (≈ 9.55 µM)
COc1ccc2cc1Oc1ccc(cc1)C[C@H]1c3cc(c(OC)cc3CCN1C)Oc1c(OC)c(OC)c(CN)c3c1[C@H](C2)N(C)CC3 [BS-TE-361] |  |  | 1.64 µg/mL (≈ 2.52 µM) | 4 µg/mL (≈ 6.14 µM) | 0.8 µg/mL (≈ 1.23 µM) | 2.78 µg/mL (≈ 4.27 µM) |  |  |  |  | 5.07 µg/mL (≈ 7.78 µM) | 10.7 µg/mL (≈ 16.4 µM) | 1.66 µg/mL (≈ 2.55 µM) | 5.1 µg/mL (≈ 7.82 µM) |  |  |  |  |  |  | 
COc1ccc2cc1Oc1ccc(cc1)C[C@H]1c3cc(c(OC)cc3CCN1C)Oc1c(OC)c(OC)c(CSc3ccccc3)c3c1[C@H](C2)N(C)CC3 [BS-TE-421] |  |  | 0.9 µg/mL (≈ 1.21 µM) | 7.91 µg/mL (≈ 10.6 µM) | 3.02 µg/mL (≈ 4.05 µM) | 7.51 µg/mL (≈ 10.1 µM) | 0.19 µg/mL (≈ 0.255 µM) | 1.28 µg/mL (≈ 1.72 µM) | 1.08 µg/mL (≈ 1.45 µM) | 4.46 µg/mL (≈ 5.99 µM) | 3.76 µg/mL (≈ 5.05 µM) | 6.73 µg/mL (≈ 9.03 µM) | 3.4 µg/mL (≈ 4.56 µM) | 8 µg/mL (≈ 10.7 µM) | 1.52 µg/mL (≈ 2.04 µM) | 3.27 µg/mL (≈ 4.39 µM) | 3.44 µg/mL (≈ 4.62 µM) | 4.8 µg/mL (≈ 6.44 µM) | 3.5 µg/mL (≈ 4.7 µM) | 4.86 µg/mL (≈ 6.52 µM) | 
